The NIST ThermoML archive (doi:10.1021/acs.jced.8b00170)
± gives the expanded uncertainty stated by the source. One block for each compound: values may come before it.

Assays:
[1] = Molar enthalpy of transition or fusion; settings: Crystal; DSC
[2] = Crystal; DTA
[3] = wn = mass fraction of the nth substance listed; settings: 101.3 kPa, Liquid, Pycnometric method

- Molar enthalpy of transition or fusion [1]: 4.5 ± 0.263 kcal/mol
- Normal melting temperature [2]: 88.2 ± 2 °C
Compound: Cc1ccc2c(c1)C(=O)OC2=O [4-methylphthalic anhydride]

- mass density ([3]; 288.15 K, w1 = 0.2851): 944 ± 18 kg/m3
- mass density ([3]; 298.15 K, w1 = 0.3937): 957 ± 19 kg/m3
- mass density ([3]; 308.15 K, w1 = 0.5686): 975 ± 18 kg/m3
Compound: O=Cc1ccc2ccccc2c1 [β-naphthaldehyde] + CCOC(C)=O

- mass density ([3]; 288.15 K, w1 = 0.2202): 933 ± 18 kg/m3
- mass density ([3]; 298.15 K, w1 = 0.2878): 948 ± 18 kg/m3
- mass density ([3]; 308.15 K, w1 = 0.3605): 964 ± 19 kg/m3
Compound: Cc1ccc2c(c1)C(=O)OC2=O [4-methylphthalic anhydride] + CCOC(C)=O
